Assay [1] has as its system PDE4 (cAMP-specific) in the cytosol of human polymorphonuclear leukocytes (PMNL). Description: PDE4 inhibition, Method A (radioactive PDE assay after Thompson et al.). Type of assay: biochemical. To be noted: cAMP substrate, motapizone 1 μM. As for the experimental part:
(§1) The PDE activity was determined according to Thompson et al. (Adv Cycl Nucl Res 10: 69-92, 1979) with some modifications (Bauer and Schwabe, Naunyn-Schmiedeberg's Arch Pharmacol 311: 193-198, 1980). The test samples contained 20 mM Tris (pH 7.4), 5 mM MgCl2, 0.5 μM CAMP or cGMP, [^3H]cAMP or [^3H]cGMP (about 30 000 cpm/sample), the PDE isoenzyme-specific additives described in greater detail below, the indicated concentrations of inhibitor and an aliquot of the enzyme solution in a total sample volume of 200 μl. Dilution series of the compounds according to the invention were prepared in DMSO and further diluted in the samples [1:100 (v/v)], to give the desired end concentration of the inhibitors at a DMSO concentration of 1% (v/v), which for its part has only a minute effect on PDE activity.
(§2) After preincubation at 37° C. for 5 minutes, the reaction was started by addition of the substrate (CAMP or cGMP). The samples were incubated at 37° C. for a further 15 min. The reaction was terminated by addition of 50 μl 0.2 N HCl. After cooling on ice for 10 minutes and addition of 25 μg 5′-nucleotidase (snake venom from Crotalus atrox), the mixture was again incubated at 37° C. for 10 min and the samples were then applied to QAE Sephadex A-25 columns (sample volume 1 ml). The columns were eluted with 2 ml of 30 mM ammonium formate (pH 6.0). The radioactivity of the eluate was measured and corrected by the corresponding blank values (measured in the presence of denatured protein); the blank values were less than 5% of the total radioactivity. In no case did the proportion of hydrolyzed nucleotide exceed 30% of the original substrate concentration.
PDE4 (cAMP-specific) was investigated in the cytosol of human polymorphonuclear leukocytes (PMNL) [isolated from leukocyte concentrates, see Schudt et al., Arch Pharmacol 1991: 344, 682-690] using cAMP as substrate. The PDE3 inhibitor motapizone (1 μM) was used to suppress the PDE3 activity emanating from contaminated platelets.
(§3) The IC50 values were determined from the concentration-inhibition curves by nonlinear regression.
(§4) The inhibitory values of the compounds 1-16 and 22-24 have been determined according to Method A. The inhibitory values of the compounds 17-21 have been determined according to Method B.

In assay [2] the target is T1, PDE3 (cGMP-inhibited) in homogenates of human platelets (Homo sapiens, UniProt Q14432).
T1 construct: investigated in homogenates of human platelets; from tissue; host or cells: homogenates of human platelets
T1 sequence (Q14432 whole entry): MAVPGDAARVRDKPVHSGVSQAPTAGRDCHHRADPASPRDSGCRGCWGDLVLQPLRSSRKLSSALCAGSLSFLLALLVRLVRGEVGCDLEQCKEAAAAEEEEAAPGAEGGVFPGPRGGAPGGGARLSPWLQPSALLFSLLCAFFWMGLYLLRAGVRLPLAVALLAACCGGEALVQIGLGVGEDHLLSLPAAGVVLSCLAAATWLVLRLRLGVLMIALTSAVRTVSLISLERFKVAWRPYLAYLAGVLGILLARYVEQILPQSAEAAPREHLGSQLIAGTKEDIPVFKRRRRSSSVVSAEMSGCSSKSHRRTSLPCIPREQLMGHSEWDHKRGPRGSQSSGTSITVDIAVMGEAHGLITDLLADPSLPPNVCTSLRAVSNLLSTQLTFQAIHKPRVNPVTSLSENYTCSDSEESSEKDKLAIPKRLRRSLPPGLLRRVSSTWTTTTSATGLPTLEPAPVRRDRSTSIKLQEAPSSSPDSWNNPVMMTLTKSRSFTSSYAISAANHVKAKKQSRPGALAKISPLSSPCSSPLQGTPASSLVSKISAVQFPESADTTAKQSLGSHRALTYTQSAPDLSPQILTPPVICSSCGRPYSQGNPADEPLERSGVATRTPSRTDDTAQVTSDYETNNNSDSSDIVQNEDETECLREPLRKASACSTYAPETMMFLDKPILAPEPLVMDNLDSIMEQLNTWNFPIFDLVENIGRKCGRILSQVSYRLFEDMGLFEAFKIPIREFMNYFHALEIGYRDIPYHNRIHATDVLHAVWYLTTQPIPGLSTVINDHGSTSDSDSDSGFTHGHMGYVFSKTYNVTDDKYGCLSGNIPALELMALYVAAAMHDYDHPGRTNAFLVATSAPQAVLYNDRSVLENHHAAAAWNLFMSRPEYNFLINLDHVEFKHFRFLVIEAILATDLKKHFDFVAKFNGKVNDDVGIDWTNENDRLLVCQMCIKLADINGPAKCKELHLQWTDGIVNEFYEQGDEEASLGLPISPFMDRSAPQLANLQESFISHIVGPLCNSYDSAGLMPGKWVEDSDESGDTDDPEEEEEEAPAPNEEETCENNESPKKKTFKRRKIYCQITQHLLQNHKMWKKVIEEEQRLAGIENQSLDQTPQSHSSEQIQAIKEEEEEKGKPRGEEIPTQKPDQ
Description: PDE3 inhibition, Method A (radioactive PDE assay after Thompson et al.). In kind it is biochemical. Particulars: read-out: PDE3 [−log IC50, mol/l] (converted). As for the experimental part: as §1, §2
PDE3 (cGMP-inhibited) was investigated in homogenates of human platelets (see Schudt et al., Biochem Pharmacol 1991: 42, 153-162) using CAMP or cGMP as substrate.
as §3, §4

The structures appear in SMILES notation.

With `CCOc1cc2c(cc1OC)C(c1ccc(C(=O)NCCCOC(C)C)cc1)=N[C@@H]1CCN(C)C[C@H]21.Cl` [Compound 1], the “PDE4 [−log IC50, mol/l]” value in assay [1] is listed as 8.9 mol/l.

Consider `CCOc1cc2c(cc1OC)C(c1ccc(C(=O)NCCCOC(C)C)cc1)=N[C@@H]1CCN(C)C[C@H]21.Cl` [Compound 1, 4-(4aR,10bS)-9-Ethoxy-8-methoxy-2-methyl-1,2,3,4,4a,10b-hexahydro-benzo [c][1,6]naphthyridin-6-yl)-N-(3-isopropoxy-propyl)-benzamide; hydrochloride], for which the IC50 in assay [2] is 631 nM.

On to `CCOc1cc2c(cc1OC)C(c1ccc(C(=O)NC(CC)COC)cc1)=N[C@@H]1CCN(C)C[C@H]21.Cl` (mixture of isomers) [Compound 3, 4-((4aR,10bS)-9-Ethoxy-8-methoxy-2-methyl-1,2,3,4,4a,10b-hexahydro-benzo [c][1,6]naphthyridin-6-yl)-N-(1(rac)-methoxymethyl-propyl)-benzamide; hydrochloride], for which the IC50 in assay [2] is 1000 nM. For the same compound, the “PDE4 [−log IC50, mol/l]” value in assay [1] was 9.0 mol/l.

In the case of `CCOc1cc2c(cc1OC)C(c1ccc(C(=O)NCCOC)cc1)=N[C@@H]1CCN(C)C[C@H]21.Cl` [Compound 14, 4-((4aR,10bS)-9-Ethoxy-8-methoxy-2-methyl-1,2,3,4,4a,10b-hexahydro-benzo [c][1,6]naphthyridin-6-yl)-N-(2-methoxy-ethyl)-benzamide; hydrochloride], the IC50 in assay [2] was 1000 nM. Further, the “PDE4 [−log IC50, mol/l]” value in assay [1] is 7.8 mol/l.

Take `CCCN(CCOC)C(=O)c1ccc(C2=N[C@@H]3CCN(C)C[C@@H]3c3cc(OCC)c(OC)cc32)cc1.Cl` [Compound 6, 4-((4aR,10bS)-9-Ethoxy-8-methoxy-2-methyl-1,2,3,4,4a,10b-hexahydro-benzo [c][1,6]naphtpyridin-6-yl)-N-(2-methoxy-ethyl)-N-propyl-benzamide; hydrochloride]: the IC50 in assay [2] is 126 nM. The “PDE4 [−log IC50, mol/l]” value in assay [1] was 9.2 mol/l.

With `CCOc1cc2c(cc1OC)C(c1ccc(C(=O)N[C@@H](C)COC)cc1)=N[C@@H]1CCN(C)C[C@H]21.Cl` [Compound 2, 4-((4aR,10bS)-9-Ethoxy-8-methoxy-2-methyl-1,2,3,4,4a,10b-hexahydro-benzo [c][1,6]naphthyridin-6-yl)-N-((S)-2-methoxy-1-methyl-ethyl)-benzamide; hydrochloride], the IC50 in assay [2] is 1580 nM. Besides, in assay [1], the “PDE4 [−log IC50, mol/l]” value was found to be 8.5 mol/l.

Regarding `CCOc1cc2c(cc1OC)C(c1ccc(C(=O)N(C(C)C)[C@@H](C)COCc3ccccc3)cc1)=N[C@@H]1CCN(C)C[C@H]21` [Compound 9, N—((S)-2-Benzyloxy-1-methylethyl)-4-((4aR,10bS)-9-ethoxy-8-methoxy-2-methyl-1,2,3,4,4a,10b-hexahydro-benzo[c][1,6]naphthyridin-6-yl)-N-isopropyl-benzamide], the IC50 in assay [2] is 15.8 nM. Also, the “PDE4 [−log IC50, mol/l]” value in assay [1] turned out to be 9.8 mol/l.

For `CCOCCCNC(=O)c1ccc(C2=N[C@@H]3CCN(C)C[C@@H]3c3cc(OCC)c(OC)cc32)cc1.Cl` [Compound 4, 4-((4aR,10bS)-9-Ethoxy-8-methoxy-2-methyl-1,2,3,4,4a,10b-hexahydro-benzo [c][1,6]naphthyridin-6-yl)-N-(3-ethoxy-propyl)-benzamide; hydrochloride], the IC50 in assay [2] was 794 nM. Also, in assay [1], the “PDE4 [−log IC50, mol/l]” value is listed as 8.4 mol/l.

For the compound `CCOc1cc2c(cc1OC)C(c1ccc(C(=O)N(C(C)C)[C@H](C)COCc3ccccc3)cc1)=N[C@@H]1CCN(C)C[C@H]21` [Compound 8, N—((R)-2-Benzyloxy-1-methyl-ethyl)-4-((4aR,10bS)-9-ethoxy-8-methoxy-2-methyl-1,2,3,4,4a,10b-hexahydro-benzo[c][1,6]naphthyridin-6-yl)-N-isopropyl-benzamide], in assay [2], the IC50 is 31.6 nM. For the same compound, the “PDE4 [−log IC50, mol/l]” value in assay [1] is on record as 9.8 mol/l.

Consider `CCOc1cc2c(cc1OC)C(c1ccc(C(=O)N(CCOC)C(C)C)cc1)=N[C@@H]1CCN(C)C[C@H]21.Cl` [Compound 7, 4-((4aR,10bS)-9-Ethoxy-8-methoxy-2-methyl-1,2,3,4,4a,10b-hexahydro-benzo [c][1,6]naphthyridin-6-yl)-N-isopropyl-N-(2-methoxy-ethyl)-benzamide; hydrochloride], for which, in assay [2], the IC50 is 79.4 nM. Moreover, the “PDE4 [−log IC50, mol/l]” value in assay [1] is on record as 8.8 mol/l.

As to `CCOc1cc2c(cc1OC)C(c1ccc(C(=O)N(CC)CCOC)cc1)=N[C@@H]1CCN(C)C[C@H]21.Cl` [Compound 5, 4-((4aR,10bS)-9-Ethoxy-8-methoxy-2-methyl-1,2,3,4,4a,10b-hexahydro-benzo [c][1,6]naphthyridin-6-yl)-N-ethyl-N-(2-methoxy-ethyl)-benzamide; hydrochloride], in assay [2], the IC50 is 200 nM. For the same compound, in assay [1], the “PDE4 [−log IC50, mol/l]” value was 8.9 mol/l.

Take `CCOc1cc2c(cc1OC)C(c1ccc(C(=O)N(C)CCOC)cc1)=N[C@@H]1CCN(C)C[C@H]21.Cl` [Compound 15, 4-((4aR,10bS)-9-Ethoxy-8-methoxy-2-methyl-1,2,3,4,4a,10b-hexahydro-benzo [c][1,6]naphthyridin-6-yl)-N-(2-methoxy-ethyl)-N-methyl-benzamide; hydrochloride]: the IC50 in assay [2] was 251 nM. In assay [1], the “PDE4 [−log IC50, mol/l]” value was found to be 8.0 mol/l.

As to `CCOc1cc2c(cc1OC)C(c1ccc(C(=O)N(C(C)C)C(C)CCOCc3ccccc3)cc1)=N[C@@H]1CCN(C)C[C@H]21` (mixture of isomers) [Compound 10, N-(3-Benzyloxy-1-methyl-propyl)-4-((4aR,10bS)-9-ethoxy-8-methoxy-2-methyl-1,2,3,4,4a,10b-hexahydro-benzo[c][1,6]naphthyridin-6-yl)-N-isopropyl-benzamide], the IC50 in assay [2] is 100 nM. In addition, in assay [1], the “PDE4 [−log IC50, mol/l]” value came to 8.9 mol/l.

On to `CCOc1cc2c(cc1OC)C(c1ccc(C(=O)N(CCOC)C3CCCCC3)cc1)=N[C@@H]1CCN(C)C[C@H]21.Cl` [Compound 12, N-Cyclohexyl-4-((4aR,10bS)-9-ethoxy-8-methoxy-2-methyl-1,2,3,4,4a,10b-hexahydro-benzo [c][1,6]naphthyridin-6-yl)-N-(2-methoxy-ethyl)-benzamide; hydrochloride], for which, in assay [2], the IC50 was 158 nM. The “PDE4 [−log IC50, mol/l]” value in assay [1] stood at 9.4 mol/l.

With `CCOc1cc2c(cc1OC)C(c1ccc(C(=O)N(CCCOC)C3CCCCC3)cc1)=N[C@@H]1CCN(C)C[C@H]21.Cl` [Compound 13, N-Cyclohexyl-4-((4aR,10bS)-9-ethoxy-8-methoxy-2-methyl-1,2,3,4,4a,10b-hexahydro-benzo [c][1,6]naphthyridin-6-yl)-N-(3-methoxy-propyl)-benzamide; hydrochloride], the IC50 in assay [2] was 200 nM. Further, the “PDE4 [−log IC50, mol/l]” value in assay [1] is on record as 9.9 mol/l.

In the case of `CCOc1cc2c(cc1OC)C(c1ccc(C(=O)N(Cc3ccccc3)[C@@H](C)COCc3ccccc3)cc1)=N[C@@H]1CCN(C)C[C@H]21` [Compound 23, N-Benzyl-N-((S)-2-benzyloxy-1-methyl-ethyl)-4-((4aR,10bS)-9-ethoxy-8-methoxy-2-methyl-1,2,3,4,4a,10b-hexahydro-benzo[c][1,6]naphthyridin-6-yl)-benzamide], the IC50 in assay [2] is 158 nM. In addition, the “PDE4 [−log IC50, mol/l]” value in assay [1] was 9.5 mol/l.

For the origin of these results see patent publication US7671068B2, “N-(alkoxyalkyl) carbamoyl-substituted 6-phenyl-benzonaphthyridine derivatives and their use as PDE ¾ inhibitors” (NYCOMED GmbH, priority 2004, dated 2010).
